We go through 2 compounds from patent EP0570196B1, “Oxime derivatives” (ZENECA LIMITED, priority 1992, dated 1993).

Assay [1] concerns 5-LO. In words: Test c): in vivo zymosan-induced LTB₄ liberation in a subcutaneous air pouch of male rats. As to conditions: rat air pouch, 3 hours.
Assay [2] concerns the target T1, 5-LO (Homo sapiens, UniProt P09917).
T1 construct: incubating a test compound with heparinised human blood, prior to challenge with the calcium ionophore A23187; endogenous in cells; host or cells: heparinised human whole blood (blood cells)
T1 sequence (P09917 1-674): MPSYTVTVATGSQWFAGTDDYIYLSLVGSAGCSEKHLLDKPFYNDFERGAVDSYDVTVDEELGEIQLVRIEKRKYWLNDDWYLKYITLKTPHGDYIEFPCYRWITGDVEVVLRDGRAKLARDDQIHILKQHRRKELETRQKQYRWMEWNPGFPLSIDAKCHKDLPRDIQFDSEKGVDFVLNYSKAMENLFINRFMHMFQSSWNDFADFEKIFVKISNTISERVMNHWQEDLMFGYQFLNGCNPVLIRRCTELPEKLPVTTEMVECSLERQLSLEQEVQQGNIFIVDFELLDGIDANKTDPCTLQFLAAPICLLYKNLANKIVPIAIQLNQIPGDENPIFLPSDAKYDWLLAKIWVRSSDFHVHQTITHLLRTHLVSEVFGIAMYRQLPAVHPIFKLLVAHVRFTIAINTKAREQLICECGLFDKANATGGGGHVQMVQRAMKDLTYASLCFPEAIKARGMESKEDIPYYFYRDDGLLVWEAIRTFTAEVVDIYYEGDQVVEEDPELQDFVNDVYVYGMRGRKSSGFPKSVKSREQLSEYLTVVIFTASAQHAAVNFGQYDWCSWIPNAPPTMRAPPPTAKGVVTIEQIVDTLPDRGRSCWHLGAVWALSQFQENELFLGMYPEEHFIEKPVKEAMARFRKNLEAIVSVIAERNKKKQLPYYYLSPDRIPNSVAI
Briefly: Test a): in vitro heparinised human blood challenged with calcium ionophore A23187, radioimmunoassay of LTB₄. As to conditions: heparinised human blood, A23187 challenge; read-out: IC₅₀ against LTB₄ in test a). The assay is classed as cell-based. An excerpt:
As stated previously, the compounds of the formula I are inhibitors of the enzyme 5-LO. […] J. Pharmacol., 1985, 84, 34P) which involve the use of a protein-LTB₄ conjugate produced using the procedure of Young et alia (Prostaglandins, 1983, 26(4), 605-613). The effects of a test compound on the enzyme cyclooxygenase (which is involved in the alternative metabolic pathway for arachidonic acid and gives rise to prostaglandins, thromboxanes and related metabolites) may be measured at the same time using the specific radioimmunoassay for thromboxane B₂(TxB₂) described by Carey and Forder (see above). This test provides an indication of the effects of a test compound against 5-LO and also cyclooxygenase in the presence of blood cells and proteins. It permits the selectivity of the inhibitory effect on 5-LO or cyclooxygenase to be assessed. • b) An ex vivo assay system, which is a variation of test a) above, involving administration to a group of rats of a test compound (usually orally as the suspension produced when a solution of the test compound in dimethylsulphoxide is added to carboxymethylcellulose), blood collection, heparinisation, challenge with A23187 and radioimmunoassay of LTB₄ and TxB₂. […]

Consider `COC1(c2cc(F)cc(Sc3ccc(CON=C(C)C)cc3)c2)CCOCC1` [Example 1, acetone 0-{4-[5-fluoro-3-(4-methoxytetrahydropyran-4-yl)phenylthio]benzyl}oxime], for which, in the assay with 5-LO [1], the “oral ED₅₀ versus LTB₄ in test c)” value is “approximately 1 mg/kg”. Moreover, the IC50 on 5-LO [2] turned out to be 150 nM.

For `COC1(c2cc(F)cc(Sc3ccc(C(C)ON=C(C)C)cc3)c2)CCOCC1` (stereo not drawn) [Example 2, acetone 0-{4-[5-fluoro-3-(4-methoxytetrahydropyran-4-yl)phenylthio)-α-methylbenzyl}oxime], the “oral ED₅₀ versus LTB₄ in test c)” value in the assay with 5-LO [1] is “approximately 1.5 mg/kg”. The IC50 at 5-LO [2] stood at 90 nM.
